# Test results published in patent US4472400A, “Triazoloquinazolones having antihistaminic and bronchospasmolytic activity” (Roussel Uclaf, priority 1981, dated 1984).
# Read-outs that look alike come from different tables or passages of the source.
# Key:
# [1] = system: histamine induced resistance change; experiment: Measurement of Pulmonary Compliance and Resistance (RMG), histamine induced resistance change; type: in vivo, guinea pig (male Dunkin Hartley); conditions: Cavia porcellus, iv; anaesthetised guinea-pigs (Hypnorm/Valium), gallamine pre-treated; compound via right jugular vein; forced oscillation; read-out: RMG ED50 (effective dose required to reduce the histamine induced resistance change by 50%)
# Procedure: (B) Measurement of Pulmonary Compliance and Resistance (RMG)
# Male Dunkin Hartley guinea-pigs weighing between 400 and 650 g were anaesthetised with a combination of Hypnorm (1 ml/kg i.m.) and Valium (5 mg/kg i.p.). The trachea was cannulated and cannulae were inserted into the right jugular vein for the administration of compounds and left carotid artery for blood pressure measurement.
# The animals were ventilated at a tidal volume of 6-8 ml and 10-12 cmH2 0 distension pressure was obtained. The respiratory rate was adjusted to 40-50/min. The animals were pre-treated with gallamine triethiodide (4 mg/kg i.v.) to maintain paralysis of respiratory muscles. Oxygen enrichment was applied to the inspiratory limb of the ventilator.
# Respiratory resistance was measured by forced oscillation (Clay and Hughes 1980). Sinusodal wave forms of pressure were divided by flow at constant lung volumes to detect resistance changes. Sine wave production was achieved by a loudspeaker driven at 6-7 Hz through a pressure transducer, pneumotachograph and differential pressure transducer to detect pressure and flow contributions of the wave form. […] Drugs and analysis of activity were as described for the Konzett Rossler technique. Ref. Clay, T. P. and Hughes, J. M. B. (1980) J. Physiol. 308 427-437. The results given in Table V show the effective dose of each of the test compounds required to reduce the histamine induced resistance change by 50%.
# [2] = system: histamine-induced bronchoconstriction; experiment: Effects on histamine-induced bronchoconstriction in anaesthetised guinea pigs (KRG); type: in vivo, guinea pig (male Dunkin Hartley); conditions: Cavia porcellus, iv, read-out: KRG ED50 (effective dose required to reduce the histamine-induced constriction in lung air volume by 50%)
# Procedure: (A) Effects on histamine-induced bronchoconstriction in anaesthetised guinea pigs (KRG)
# Male Dunkin Hartley guinea-pigs weighing 350-650 grams were anaesthetised with urethane (25% w/v solution in distilled water at 7.0 ml/kg i.p). […] The animals were ventilated with a ventilatory pump, stroke volume of 8 ml and frequency of 52 to maintain a lung inflation pressure of 10 cm of H2 O. Blood pressure was measured via a cannula in the right carotid artery connected to a Statham blood pressure transducer and a Devices M2 recorder. The test compounds were administered via the cannulated left jugular vein and washed in with 0.1 ml of 0.9% w/w NaCl in distilled water. The test product was administered immediately before the histamine which was used as the agonist.
# Respiratory changes were recorded via a differential transducer connected to an SE 905 transducer/converter which in turn was connected to a Devices M2 recorder.
# [3] = anaesthetised guinea-pigs (urethane), test compound i.v. (jugular vein) immediately before histamine
Compound,ED50 [1],"ED50 [2, 3]",ED50 [2]
Cn1c(=O)c2ccccc2n2c(CN3CCCCC3)nnc12 [Example 23],1 mg/kg,> 1 mg/kg,
"CCCCn1c(=O)c2ccccc2n2c(CN3CCCCCC3)nnc12 [Example 22, 1-(2,3,4,5,6,7,-hexahydroazepino)methyl-4-n-butyl[1,2,4]triazolo[4,3-a] quinazolin-5(4H)-one]",,0.84 mg/kg,
CCCn1c(=O)c2ccccc2n2c(CN3CCCCCC3)nnc12 [Example 5],0.3 mg/kg,0.096 mg/kg,
"CCn1c(=O)c2ccccc2n2c(CN3CCCCC3)nnc12 [Example 29, 1-piperidinomethyl-4-ethyl[1,2,4]triazolo[4,3-a]quinazolin-5 (4H)-one]",0.5 mg/kg,0.35 mg/kg,
CCCCN(CCCC)Cc1nnc2n(CCC)c(=O)c3ccccc3n12 [Example 14],,2.9 mg/kg,
CCCn1c(=O)c2ccccc2n2c(CNC3CCCCC3)nnc12 [Example 11],,1.8 mg/kg,
CC(C)n1c(=O)c2ccccc2n2c(CN3CCCCCC3)nnc12 [Example 20],,0.8 mg/kg,
O=c1c2ccccc2n2c(CN3CCCCC3)nnc2n1-c1ccccc1 [Example 31],,0.58 mg/kg,
CCCn1c(=O)c2ccccc2n2c(CN3CCN(c4ccccc4)CC3)nnc12 [Example 6],,5 mg/kg,
CCCn1c(=O)c2ccccc2n2c(CN3CC4CCC(CC4)C3)nnc12 [Example 7],,,0.33 mg/kg
"C=CCn1c(=O)c2ccccc2n2c(CN3CCCCC3)nnc12 [Example 33, 4-allyl-1-piperidinomethyl[1,2,4]triazolo[4,3-a]quinazolin-5(4H)-one]",,0.31 mg/kg,
CCN(CC)Cc1nnc2n(CC)c(=O)c3ccccc3n12 [Example 30],1 mg/kg,,
CCOC(=O)N1CCN(Cc2nnc3n(C)c(=O)c4ccccc4n23)CC1 [Example 25],3.5 mg/kg,5 mg/kg,
"CCCCn1c(=O)c2ccccc2n2c(CN3CCCCC3)nnc12 [Example 21, 1-piperidinomethyl-4-n-butyl[1,2,4]triazolo[4,3-a]quinazolin-5(4H)-one]",0.15 mg/kg,0.11 mg/kg,
"CCCn1c(=O)c2ccccc2n2c(CN3CCCCC3)nnc12.Cl.O [Example 1, 1-Piperidinomethyl-4-n-propyl[1,2,4]triazolo[4,3-a]quinazolin-5(4H)-one hydrochloride, monohydrate]",,0.12 mg/kg,
CCCNCc1nnc2n(CCC)c(=O)c3ccccc3n12 [Example 10],,1.97 mg/kg,
CCCn1c(=O)c2ccccc2n2c(CN3CCN(C)CC3)nnc12 [Example 3],,5.28 mg/kg,
CCCn1c(=O)c2ccccc2n2c(CN(CC)CC)nnc12 [Example 2],0.5 mg/kg,,
CCCn1c(=O)c2ccccc2n2c(CN3CC(C)CC(C)C3)nnc12 (centres unmarked) [Example 8],,1 mg/kg,
CCCCNCc1nnc2n(CCC)c(=O)c3ccccc3n12 [Example 12],,1.3 mg/kg,
CN1CCN(Cc2nnc3n(C)c(=O)c4ccccc4n23)CC1 [Example 27],0.8 mg/kg,,
Cn1c(=O)c2ccccc2n2c(CN3CCOCC3)nnc12 [Example 24],1.8 mg/kg,2.76 mg/kg,
CC(C)n1c(=O)c2ccccc2n2c(CN3CCCCC3)nnc12 [Example 19],,0.185 mg/kg,
CCN(CC)Cc1nnc2n(C)c(=O)c3ccccc3n12 [Example 26],1 mg/kg,3.75 mg/kg,
CCCn1c(=O)c2ccccc2n2c(CN3CCCC3)nnc12 [Example 4],,2 mg/kg,
